Values quoted from earlier work in patent publication US20230089090A1, “Composition for Treating Viral Infections” (priority 2020, published 2023).

What was measured:
[1] = significant amount excreted over a 24-h period
human furin = human furin (Homo sapiens, UniProt P09958)
[2] = test system: HIV-1 infected lymphocytes; conditions: similar to DRB and cell control
[3] = test system: androgen receptor (AR)-positive C4-2 cells; conditions: single compounds, read-out: half minimal inhibitory concentration (IC50)
[4] = in vivo, 10 mg/kg
[5] = both flavonols administered simultaneously

Sequence of human furin (P09958 108-794): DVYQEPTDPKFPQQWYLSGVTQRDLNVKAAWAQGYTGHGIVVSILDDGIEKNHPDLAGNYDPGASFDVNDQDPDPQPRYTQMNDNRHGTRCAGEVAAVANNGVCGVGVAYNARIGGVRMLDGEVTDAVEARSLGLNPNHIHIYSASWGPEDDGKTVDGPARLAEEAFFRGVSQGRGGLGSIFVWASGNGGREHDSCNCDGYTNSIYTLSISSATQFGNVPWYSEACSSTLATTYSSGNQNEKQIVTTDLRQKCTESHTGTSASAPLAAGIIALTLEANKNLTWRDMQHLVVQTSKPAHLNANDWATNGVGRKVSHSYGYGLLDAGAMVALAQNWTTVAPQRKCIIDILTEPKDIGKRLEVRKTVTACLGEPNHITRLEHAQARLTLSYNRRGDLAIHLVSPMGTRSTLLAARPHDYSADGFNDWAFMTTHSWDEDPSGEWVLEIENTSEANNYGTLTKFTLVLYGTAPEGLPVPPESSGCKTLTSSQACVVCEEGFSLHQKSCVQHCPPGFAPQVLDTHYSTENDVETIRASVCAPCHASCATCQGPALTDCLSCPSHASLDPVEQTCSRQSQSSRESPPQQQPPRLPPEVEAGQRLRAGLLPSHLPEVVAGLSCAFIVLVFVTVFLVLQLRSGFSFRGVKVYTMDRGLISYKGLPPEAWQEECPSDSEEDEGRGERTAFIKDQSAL

Q: For `O=c1c(O)c(-c2ccc(O)c(O)c2)oc2cc(O)cc(O)c12` [quercetin, 2-(3,4-dihydroxyphenyl)-3,5,7-trihydroxy-4H-chromen-4-one], which “clearance and half-life in the blood” value [1] is on record?
A: The value was “rapid clearance and a short half-life”.

Q: Which “manner of inhibition of the enzyme activity” value (human furin) does the source give for `O=c1cc(-c2ccc(O)c(O)c2)oc2cc(O)cc(O)c12` [luteolin, 2-(3,4-dihydroxyphenyl)-5,7-dihydroxy-4-chromenone] here?
A: The value was “uncompetitive”.

Q: What about the Ki (human furin; uncompetitive inhibition) of the same molecule?
A: Its Ki is 58.6 µM.

Q: What about the cell aggregation/syncytia [2] of the same molecule?
A: Its cell aggregation/syncytia is “inhibition in cell aggregation/syncytia”.

Q: What about the dengue virus replication (dengue virus; through inhibition of the proprotein convertase furin) of the same molecule?
A: Its dengue virus replication is “restricts dengue virus replication”.

Q: What about the “prM cleavage in virus particles” value (dengue virus; virus particles from luteolin-treated cells) of the same molecule?
A: The value was “not cleaved efficiently”.

Q: What about the IC50 [3] of the same molecule?
A: Its IC50 is 114 µM.

Q: And the adverse effects [4]?
A: The adverse effects was “Major adverse effects had not been observed”.

Q: With `O=c1c(O)c(-c2ccc(O)cc2)oc2cc(O)cc(O)c12` [kaempferol, 3,4′,5,7-tetrahydroxyflavone] as the molecule, how does the “effect on efflux of quercetin” value [5] read?
A: Its value is “blocked the efflux of quercetin”.
